Assay results from publication PMC7802073, “Small Molecule Inhibitors of the Bacterioferritin (BfrB)–Ferredoxin (Bfd) Complex Kill Biofilm-Embedded Pseudomonas aeruginosa Cells” (ACS Infectious Diseases, 2020).
≈ marks a conversion by molar mass, not a printed value. Read-outs that look alike come from different tables or passages of the source.

Assays:
PA_1081725 = settings: isolate purchased from JMI Laboratories, no MIC method given; cited from earlier work
PA_1076058 = settings: isolate purchased from JMI Laboratories, no MIC method given; cited from earlier work
P. aeruginosa PAO1 [1] = tested on: P. aeruginosa PAO1; parameters: method as in PMID 31038945; settings: planktonic growth, cited from earlier work
P. aeruginosa PAO1 [2] = experiment: Half maximal inhibitory concentration (IC50) on planktonic growth, CFU/mL enumeration; assay type: cell-based, Pseudomonas aeruginosa; settings: 24 h, 35 °C, 2% DMSO, this work
Experimental: Chemicals were purchased from Fisher Scientific unless otherwise stated. P. aeruginosa PAO1 was obtained from the University of Washington Genome center.[81] The PAO1 strain expressing enhanced yellow fluorescent protein (EYFP) was prepared previously.[26] Clinical isolates of P. aeruginosa were purchased from JMI Laboratories (North Liberty, IA, USA). […] Starter cultures were grown from a single colony at 37 °C and shaking at 220 rpm for 14 h in 5 mL PI media supplemented with 10 μM Fe. Pellicle biofilms were cultured for 48 h at 30 °C in PI media supplemented with 20 μM Fe. Surface-attached biofilms were cultured in AB minimal media[82] supplemented with trace metals [0.15 μM (NH4)2MoO4, 3 μM CuSO4, 2 μM Co(NO3)2, 9.4 μM Na2B4O7, and 7.6 μM ZnSO4], 3 mM glucose and 15 μM Fe. Iron supplementation was carried out by addition of a small volume of filter-sterilized 10 mM (NH4)2Fe(SO4)2 (pH ∼ 2.0) solution. […]; IC50 values (Table 1, Figure S1) were determined as reported previously[25] with small modifications. In brief: precultures of P. aeruginosa PAO1 (5 mL) were grown in LB media for 13 h at 37 °C and 220 rpm in 50 mL conical tubes (VWR International, PA). The cells were centrifuged for 5 min at 4000 rpm and 4 °C, washed two times and then diluted in buffer (100 mM KH2PO4 and 15 mM (NH4)2SO4) to an optical density at 600 nm (OD600) of 0.1. A small volume of compound stock solution (10 mM) was transferred to a microcentrifuge tube, initially diluted with DMSO to 20 μL, and then diluted to 1 mL with preculture cell suspension in defined media with OD600 = 0.0001, so the final DMSO concentration is 2%. The resultant cell suspension (200 μL) was transferred to a clear-bottom polystyrene 96-well plate (VWR) covered with a lid and incubated at 35 °C and 205 cpm for 24 h in a Synergy H1 microplate reader (Biotek Instruments Inc., Vermont). The cell cultures were serially diluted and then plated on PI Agar (PIA; BD biosciences) plates for enumeration of viable cells (CFU/mL). The % growth was calculated from the ratio CFU/mL(treated)/CFU/mL(untreated control). To calculate the IC50 values, the % growth was plotted as a function of compound concentration, expressed as log[compound] (μM), and fitted to the 4-parameter logistic model describing the sigmoid-shaped response pattern (eq 1),[84] where b is the slope factor, max is the upper asymptote (plateau), and min is the lower asymptote. Values are the average and standard deviation from three independent experiments. [drawing 1] 1

BfrB [3] = molecular target: T1, BfrB (Pseudomonas aeruginosa, UniProt Q9HY79); experiment: Dissociation constant (Kd) for BfrB by fluorescence polarization; assay type: binding
Experimental: Dissociation constants for the interaction between BfrB and 3-aminoisoindoline-1,3-dione derivatives (Table 1, Figure S1) were measured in vitro with a fluorescence polarization method based on the intrinsic fluorescence of the isoindoline-1,3-dione moiety, as described previously.[25]
25 (A) and KM-5-66 (B) for BfrB, evaluated by fluorescence polarization, as described previously1.
Values were obtained in 100 mM potassium phosphate buffer (pH 7.6) containing 1 mM TCEP and
0.5% DMSO. The initial concentrations of KM-5-25 and KM-5-66 were 5 µM. The Kd values are the
average and standard deviation from three independent measurements. […]

Aqueous solubility = assay type: physicochemical; settings: for solubility: PBS buffer, read-out: solubility in PBS buffer; for aqueous solubility (in words): aqueous solution
P. aeruginosa = tested on: P. aeruginosa; parameters: method as in PMID 11420333; settings: cited from earlier work
[4] = tested on: EYFP-expressing P. aeruginosa PAO1 pellicles; experiment: Viable cells (CFU/mL) dispersed from pellicle biofilms; assay type: cell-based, Pseudomonas aeruginosa; settings: 2-day old pellicles, 24 h
Experimental: Pellicle biofilms were grown as described above. Planktonic and loosely attached cells were washed (3 times) by immersing the coverslip-adhered pellicles (biofilm facing up) into a well of a 12-well plate containing 3 mL PBS, and incubating (5 min) with gentle rocking. To remove the pellicle from the coverslip, break the extracellular matrix and release cells from the biofilm, the coverslip-adhered pellicle was placed in a 50 mL conical tube containing a 2 mL suspension of zirconia beads (0.1 mm diameter, BioSpec Products), 10 mL PBS, 0.2 μg/mL alginate lyase and 0.2 μg/mL DNase. The resultant mixture was incubated at room temperature for 3 min, followed by vigorous vortexing for 4 min. After sedimentation of the zirconia beads, a 100 μL aliquot was used for serial dilution and plating on PIA plates for subsequent enumeration of viable cells (CFU/mL).

[5] = tested on: Pellicles of P. aeruginosa PAO1 expressing EYFP; experiment: Pellicle biofilm assay, CLSM imaging and COMSTAT viable biomass; assay type: cell-based, Pseudomonas aeruginosa; settings: 2-day old pellicles, 24 h
Experimental: Pellicle biofilms of EYFP-expressing P. aeruginosa PAO1 or clinical isolates were grown in PI media supplemented with 20 μM Fe. Starter cultures were diluted to OD600 = 0.001 in 4 mL media, placed in 35 × 10 mm Petri dishes and incubated statically at 30 °C for 48 h. The pellicles were transferred onto circular (1.5 cm diameter) glass coverslips by gently allowing the surface of a coverslip to contact a pellicle. The pellicle-adhered coverslip was washed in PBS and then deposited on top of 1.5 mL AB challenge media contained in a well of a 12-well microplate, with the pellicle exposed to the media. […] The coverslip-adhered pellicles were exposed to challenge media at 30 °C for 24 h, changing the challenge media every 12 h by transferring the pellicle-adhered coverslip to a new plate containing prewarmed challenge media.
Excess fluorescent dye was washed with PBS, the coverslip was mounted on a glass slide using 5 μL SlowFade (Invitrogen Life Technologies) and the edges sealed with fingernail polish. CLSM image stacks (z-step size of 0.3 μm) were acquired with the aid of a Leica TCS SP8 microscope, as described above. Quantitative analysis was performed by determination of pellicle biomass using COMSTAT[55] and the Otsu method of automatic thresholding.[86]

[6] = tested on: EYFP-expressing P. aeruginosa PAO1 biofilms; experiment: Flow cell biofilm assay, CLSM imaging and COMSTAT viable biomass; assay type: cell-based, Pseudomonas aeruginosa; settings: 3-day old flow cell biofilms, 24 h treatment, 25× MIC
Text: The treated biofilms were counterstained with the cell impermeable fluorescent nucleic acid dye Sytox Red and then imaged with the aid of confocal laser scanning microscopy (CLSM).
Image stacks were acquired with a z-step size of 0.3 μm at randomly chosen positions.

BfrB [7] = molecular target: T1, BfrB; settings: Bfd binding sites on BfrB equivalent and independent; cited from earlier work
[8] = Pseudomonas aeruginosa, PAO1, defined media, read-out: IC50

T1 sequence (Q9HY79 whole entry): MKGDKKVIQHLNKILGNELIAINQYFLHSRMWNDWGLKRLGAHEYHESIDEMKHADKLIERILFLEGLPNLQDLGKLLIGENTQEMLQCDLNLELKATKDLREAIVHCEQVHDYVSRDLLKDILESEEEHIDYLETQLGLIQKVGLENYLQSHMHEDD

Molecule: NCC[C@H](O)C(=O)N[C@@H]1C[C@H](N)[C@@H](O[C@H]2O[C@H](CN)[C@@H](O)[C@H](O)[C@H]2O)[C@H](O)[C@H]1O[C@H]1O[C@H](CO)[C@@H](O)[C@H](N)[C@H]1O [Amikacin]
- MIC (PA_1081725): 16 µg/mL (≈ 27.3 µM)
- MIC (PA_1076058): 4 µg/mL (≈ 6.83 µM)

Molecule: Nc1cccc2c1C(=O)NC2=O [Analog 8, 4-aminoisoindoline-1,3-dione]
- IC50 (P. aeruginosa PAO1 [1]): not active

Molecule: O=C1NC(=O)c2c(NCc3ccccc3O)cccc21 [Analog 11]
- IC50 (P. aeruginosa PAO1 [1]; read-out: IC50): 258 ± 23 µM

Molecule: O=C1NC(=O)c2c(NCCCc3cccc(O)c3)cccc21 [Analog 16]
- IC50 (P. aeruginosa PAO1 [1]; read-out: IC50): 121 ± 4 µM

Molecule: C[C@H]1[C@H](NC(=O)/C(=N\OC(C)(C)C(=O)O)c2csc(N)n2)C(=O)N1S(=O)(=O)O [Aztreonam]
- MIC (PA_1081725): > 16 µg/mL
- MIC (PA_1076058): 16 µg/mL (≈ 36.7 µM)

Molecule: O=C1NC(=O)c2c(NCc3cccc(O)c3)cccc21 [BN-XIV-53]
- IC50 (P. aeruginosa PAO1 [2]; defined media): not active at 120 μM
- Kd (BfrB [3]): 21 ± 3 µM

Molecule: CC(C)(O/N=C(\C(=O)N[C@@H]1C(=O)N2C(C(=O)[O-])=C(C[n+]3ccccc3)CS[C@H]12)c1csc(N)n1)C(=O)O [Ceftazidime]
- MIC (PA_1081725): > 32 µg/mL
- MIC (PA_1076058): > 32 µg/mL

Molecule: C[C@H]1c2cccc(O)c2C(=O)C2=C(O)[C@]3(O)C(=O)C(C(N)=O)=C(O)[C@@H](N(C)C)[C@@H]3[C@@H](O)[C@@H]21 [Doxycycline]
- MIC (PA_1081725): 4 µg/mL (≈ 9 µM)
- MIC (PA_1076058): > 8 µg/mL

Molecule: CNC(C)C1CCC(N)C(OC2C(N)CC(N)C(OC3OCC(C)(O)C(NC)C3O)C2O)O1 (stereo not shown) [Gentamicin]
- MIC (PA_1081725): 4 µg/mL (≈ 8.38 µM)
- MIC (PA_1076058): > 16 µg/mL

Molecule: O=C1NC(=O)c2c(NCCCc3cc(F)ccc3O)cccc21 [JAG-5-6, 4-((3-(5-fluoro-2-hydroxyphenyl)propyl)amino)isoindoline-1,3-dione]
- IC50 (P. aeruginosa PAO1 [2]; [8]): 54 ± 9 µM
- Kd (BfrB [3]): 0.43 ± 0.07 µM

Molecule: O=C1NC(=O)c2c(NCc3cc(F)ccc3O)cccc21 [JAG-5-7, 4-((5-Fluoro-2-hydroxybenzyl)amino)isoindoline-1,3-dione]
- IC50 (P. aeruginosa PAO1 [2]; [8]): 128 ± 26 µM
- Kd (BfrB [3]): 7 ± 2 µM

Molecule: O=C1NC(=O)c2c(NCCCc3ccccc3O)cccc21 [KM-5-28]
- IC50 (P. aeruginosa PAO1 [2]; [8]): 96 ± 1 µM
- Kd (BfrB [3]): 1.4 ± 0.2 µM

Molecule: O=C1NC(=O)c2c(NCc3c(O)cccc3Cl)cccc21 [KM-5-29, 4-((6-Chloro-2-hydroxybenzyl)amino)isoindoline-1,3-dione]
- solubility (Aqueous solubility): < 30 µM
- aqueous solubility (in words) (Aqueous solubility): poorly soluble in aqueous solution
- Kd (BfrB [3]): 6 ± 0.5 µM

Molecule: O=C1NC(=O)c2c(NCc3cccc(Cl)c3O)cccc21 [KM-5-30, 4-((3-Chloro-2-hydroxybenzyl)amino)isoindoline-1,3-dione]
- IC50 (P. aeruginosa PAO1 [2]; [8]): 156 ± 30 µM
- Kd (BfrB [3]): 6 ± 1 µM

Molecule: O=C1NC(=O)c2c(NCc3cc(O)cc(Cl)c3)cccc21 [KM-5-50, 4-((5-Chloro-3-hydroxybenzyl)amino)isoindoline-1,3-dione]
- IC50 (P. aeruginosa PAO1 [2]; [8]): 82 ± 16 µM
- Kd (BfrB [3]): 11 ± 2 µM

Molecule: O=C1NC(=O)c2c(NCCCc3cc(Cl)ccc3O)cccc21 [KM-5-54]
- solubility (Aqueous solubility): < 30 µM
- aqueous solubility (in words) (Aqueous solubility): poor water solubility
- Kd (BfrB [3]): 0.22 ± 0.04 µM

Molecule: O=C1NC(=O)c2c(NCCCc3cc(O)cc(O)c3)cccc21 [KM-5-57]
- IC50 (P. aeruginosa PAO1 [2]; defined media): not active at 200 μM
- Kd (BfrB [3]): 2.5 ± 0.4 µM

Molecule: C[C@@H](O)[C@H]1C(=O)N2C(C(=O)O)=C(S[C@@H]3CN[C@H](C(=O)N(C)C)C3)[C@H](C)[C@H]12 [Meropenem]
- MIC (PA_1081725): 32 µg/mL (≈ 83.4 µM)
- MIC (PA_1076058): 4 µg/mL (≈ 10.4 µM)

Molecule: O=C(O)c1cn(C2CC2)c2cc(N3CCNCC3)c(F)cc2c1=O [ciprofloxacin]
- MIC (P. aeruginosa; reported MIC converted to μM): 0.75 µM
- MIC (P. aeruginosa; reported MIC): 0.25 µg/mL
- MIC (PA_1081725): 16 µg/mL (≈ 48.3 µM)
- MIC (PA_1076058): > 16 µg/mL

Molecule: NC[C@H]1O[C@H](O[C@H]2[C@H](O)[C@@H](O[C@H]3O[C@H](CO)[C@@H](O)[C@H](N)[C@H]3O)[C@H](N)C[C@@H]2N)[C@H](N)C[C@@H]1O [tobramycin]
- % cell survival, CFU/mL(after treatment)/CFU/mL(pretreatment) ([4]; 25× MIC): ~70%
- % cell survival, CFU/mL(after treatment)/CFU/mL(pretreatment) ([4]; 50× MIC): ~70%
- tolerance of pellicle biofilms (CLSM) ([5]; 25× and 50× the MIC): tolerant
- MIC (P. aeruginosa; reported MIC converted to μM): 1.07 µM
- MIC (P. aeruginosa; reported MIC): 0.5 µg/mL
- MIC (PA_1081725): 16 µg/mL (≈ 34.2 µM)
- % survival (viable biomass, COMSTAT) [6]: ~70%
- MIC (PA_1076058): > 16 µg/mL

Molecule: colistin
- % cell survival, CFU/mL(after treatment)/CFU/mL(pretreatment) ([4]; 25× MIC): ~10%
- % cell survival, CFU/mL(after treatment)/CFU/mL(pretreatment) ([4]; 50× MIC): ~1%
- fluorescence signal from viable cells expressing EYFP ([5]; 50× MIC): undetectable
- susceptibility of pellicle biofilms (CLSM) ([5]; concentrations above 10× MIC): susceptible
- MIC (P. aeruginosa; reported MIC converted to μM): 0.79 µM
- MIC (P. aeruginosa; reported MIC): 1 µg/mL
- % survival (viable biomass, COMSTAT) [6]: ~20%

B1: Bfd: bacterioferritin-associated ferredoxin, a [2Fe-2S] protein that binds BfrB to mobilize stored iron (protein, UniProt Q9HY80 1-73, looked up)
Bacterioferritin-associated …: MYVCLCQGVTDNQIRDAIYEGCCSYREVREATGVGTQCGKCACLAKQVVRETLNDLQSAQPVPAFGTTAFVAA
- Kd (BfrB [7]): 3 µM
